Measurements as given in patent US20110206607A1, “IMIDAZOL (1,2-A)PYRIDINES AND RELATED COMPOUNDS WITH ACTIVITY AT CANNABINOID CB2 RECEPTORS” (priority 2007, published 2011).

Biological target: T1, human CB2 (Homo sapiens, UniProt P34972)
T1 construct: expressed in transfected cells; host or cells: HEK-293T (transient transfection, membrane preparation)
Assay: CB2 receptor binding assay, block of [3H]-CP 55,940 binding
Conditions: membranes of HEK-293T cells transfected with human CB2 cDNA; 1.5 nM [3H]-CP 55,940
Protocol: Membrane preparation—HEK-293T cells were cultured according to ATCC (Manassas, Va.) guidelines and transfected with human CB2 cDNA (SEQ ID NO:1) (Genbank X74328), operably linked to the SV40 promoter, using Polyfect (Qiagen, Valencia, Calif.) or Fugene (Roche, Nutley, N.J.) according to manufacturer's instructions. 48 h after transfection cells were harvested in ice cold membrane buffer (20 mM HEPES, 6 mM MgCl2, 1 mM EDTA, pH 7.2) using a cell scraper. Cells were transferred to a nitrogen cavitation chamber and a pressure of […] was applied for 30 min. The pressure was released and the cell debris was collected and centrifuged at 1000 g at 4° C. for 10 min. The supernatant was collected and the spin was repeated until the supernatant was free of precipitate. Membranes were then pelleted by centrifugation at 12.000 g at 4° C. for 20 min. Membranes were resuspended in an appropriate amount of membrane buffer. The membrane concentration was determined using a BioRad (Hercules, Calif.) protein assay dye reagent according to manufacturer's instructions. Membranes were diluted to 1 mg/ml and aliquots snap-frozen in liquid nitrogen and store at −80° C.
Binding assay—0.5-10 ng of membranes were incubated in binding buffer (50 mM Tris, 0.5 mM EDTA, 0.1% BSA, pH 7.4) in the presence of 1.5 nM radioligand ([^3H]-CP 55,940 Perkin Elmer) and varying concentrations of ligands (total volume 100 μL in a 96 well plate). Membranes were filtered onto a 96 well GF/B filterplate (Packard Bioscience, Shelton, Conn.) and washed with […] wash buffer (25 mM HEPES, 1 mM CaCl2, 5 mM MgCl2, 0.25M NaCl) using a Filtermate 196 Harvester (Packard Instruments, Downers Grove, Ill.). The filter plates were dried under a heat lamp before addition of 50 μL of scintillation fluid to each well (Microscint 20, Packard, Shelton, Conn.). Plates were counted on a Topcount NXT (Packard, Shelton, Conn.).
Data Analysis—Graphs were plotted and KD values were determined by nonlinear regression analysis using Prism software (GraphPad version 4.0, San Diego, Calif., USA).

T1 sequence (P34972 whole entry): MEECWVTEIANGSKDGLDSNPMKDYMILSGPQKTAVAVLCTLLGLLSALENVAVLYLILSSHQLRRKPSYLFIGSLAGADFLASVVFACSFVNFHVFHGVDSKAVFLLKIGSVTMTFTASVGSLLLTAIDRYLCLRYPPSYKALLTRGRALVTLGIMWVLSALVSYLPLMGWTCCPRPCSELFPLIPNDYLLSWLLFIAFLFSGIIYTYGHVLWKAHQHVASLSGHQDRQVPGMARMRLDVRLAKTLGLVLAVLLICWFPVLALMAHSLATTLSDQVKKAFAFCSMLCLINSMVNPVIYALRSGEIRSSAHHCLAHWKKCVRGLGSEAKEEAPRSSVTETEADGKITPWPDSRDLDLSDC

SMILES | pKi
COc1cccc2nc(-c3c(F)ccc(OCF)c3F)c(Nc3ccc4c(c3)OCCO4)n12 [CR-1] | 9.5
COc1cccc2nc(-c3c(F)ccc(O)c3Cl)c(Nc3ccc4c(c3)OCCO4)n12 [CR-2] | 8.6
COc1cccc2nc(-c3c(F)cc(OCF)cc3F)c(Nc3ccc4c(c3)OCCO4)n12 [CR-3] | 8.6
COc1cccc2nc(-c3c(F)ccc(O)c3F)c(Nc3ccc4c(c3)OCCO4)n12 [CR-4] | 8.5
COc1cccc2nc(-c3c(C)cc(OCCO)cc3C)c(Nc3ccc4c(c3)OCCO4)n12 [CR-5] | 8.3
Oc1cc(F)c(-c2nc3cccc(OCCF)n3c2Nc2ccc3c(c2)OCCO3)c(F)c1 [CR-6] | 7.6
FCCOc1cccc2nc(-c3c(F)cncc3F)c(Nc3ccc4c(c3)OCCO4)n12 [CR-7] | 7.4
FCCOc1cncc(F)c1-c1nc2cccc(OCCF)n2c1Nc1ccc2c(c1)OCCO2 [CR-8] | 6.6
COc1cccc2nc(-c3c(F)ccc(OCCF)c3Cl)c(Nc3ccc4c(c3)OCCO4)n12 [CR-9] | 9.3
COc1cccc2nc(-c3c(Cl)ccc(OCF)c3F)c(Nc3ccc4c(c3)OCCO4)n12 [CR-10] | 9.2
COc1cccc2nc(-c3c(F)ccc(OCF)c3Cl)c(Nc3ccc4c(c3)OCCO4)n12 [CR-11] | 9.1
COc1cccc2nc(-c3c(F)ccc(OCCF)c3F)c(Nc3ccc4c(c3)OCCO4)n12 [CR-12] | 8.8
COc1ccc2nc(-c3c(F)cccc3Cl)c(Nc3ccc4c(c3)OCCO4)n2c1 [CR-13] | 8.7
COc1cccc2nc(-c3c(F)cccc3Cl)c(Nc3ccc4c(c3)OCCO4)n12 [CR-14] | 8.7
COc1cccc2nc(-c3c(F)cc(O)cc3F)c(Nc3ccc4c(c3)OCCO4)n12 [CR-15] | 8.6
COc1ccc2nc(-c3c(F)ccc(OCF)c3Cl)c(Nc3ccc4c(c3)OCCO4)n2c1 [CR-16] | 8.6

SMILES | pKi
COc1cccc2nc(-c3c(F)cc(OCCF)cc3F)c(Nc3ccc4c(c3)OCCO4)n12 [CR-17] | 8.5
COc1cccc2nc(-c3c(Cl)cccc3Cl)c(Nc3ccc4c(c3)OCCO4)n12 [CR-18] | 8.4
COc1cccc2nc(-c3c(F)cccc3F)c(Nc3ccc4c(c3)OCCO4)n12 [CR-19] | 8.4
COc1cccc2nc(-c3c(Cl)cncc3Cl)c(Nc3ccc4c(c3)OCCO4)n12 [CR-20] | 8.4
COc1cccc2nc(-c3c(C)cc(OCCF)cc3C)c(Nc3ccc4c(c3)OCCO4)n12 [CR-21] | 8.3
COc1cccc2nc(-c3c(Cl)ncnc3Cl)c(Nc3ccc4c(c3)OCCO4)n12 [CR-22] | 8.2
COc1cccc2nc(-c3c(Cl)cc(O)cc3Cl)c(Nc3ccc4c(c3)OCCO4)n12 [CR-23] | 8.2
CCOc1cccc2nc(-c3c(F)cccc3Cl)c(Nc3ccc4c(c3)OCCO4)n12 [CR-24] | 8.1
Cc1cccc2nc(-c3c(F)cccc3Cl)c(Nc3ccc4c(c3)OCCO4)n12 [CR-25] | 8.0
Cc1cccc2nc(-c3c(F)cc(OCCF)cc3F)c(Nc3ccc4c(c3)OCCO4)n12 [CR-26] | 7.9
Cc1cc(O)cc(C)c1-c1nc2cccc(OCCF)n2c1Nc1ccc2c(c1)OCCO2 [CR-27] | 7.9
Cc1cccc2nc(-c3c(F)cc(O)cc3F)c(Nc3ccc4c(c3)OCCO4)n12 [CR-28] | 7.9
CC(C)Oc1cccc2nc(-c3c(F)cccc3Cl)c(Nc3ccc4c(c3)OCCO4)n12 [CR-29] | 7.9
C=COc1ccc2nc(-c3c(F)cccc3Cl)c(Nc3ccc4c(c3)OCCO4)n2c1 [CR-30] | 7.8
COc1cnc2nc(-c3c(F)cccc3Cl)c(Nc3ccc4c(c3)OCCO4)n2c1 [CR-31] | 7.8
Cc1cccc2nc(-c3c(Cl)cccc3Cl)c(Nc3ccc4c(c3)OCCO4)n12 [CR-32] | 7.8

Further lines, results first:

pKi | SMILES
7.8 | Cc1cc(O)cc(C)c1-c1nc2ccc(F)cn2c1Nc1ccc2c(c1)OCCO2 [CR-33]
7.8 | COc1cccc2nc(-c3c(F)cncc3F)c(Nc3ccc4c(c3)OCCO4)n12 [CR-34]
7.8 | Oc1cc(Cl)c(-c2nc3cccc(OCCF)n3c2Nc2ccc3c(c2)OCCO3)c(Cl)c1 [CR-35]
7.7 | Cc1cc(OCCF)cc(C)c1-c1nc2cccc(F)n2c1Nc1ccc2c(c1)OCCO2 [CR-36]
7.7 | FCCOc1cccc2nc(-c3c(F)cccc3Cl)c(Nc3ccc4c(c3)OCCO4)n12 [CR-37]
7.7 | Fc1cccc(Cl)c1-c1nc2ccccn2c1Nc1ccc2c(c1)OCCO2 [CR-38]
7.6 | Cc1ccc2nc(-c3c(Cl)cccc3Cl)c(Nc3ccc4c(c3)OCCO4)n2c1 [CR-39]
7.5 | Fc1ccc2nc(-c3c(F)cccc3Cl)c(Nc3ccc4c(c3)OCCO4)n2c1 [CR-40]
7.5 | FCCOc1ccc2nc(-c3c(F)cccc3Cl)c(Nc3ccc4c(c3)OCCO4)n2c1 [CR-41]
7.5 | Cc1ccc2nc(-c3c(F)cccc3Cl)c(Nc3ccc4c(c3)OCCO4)n2c1 [CR-42]
7.5 | CNc1cccc2nc(-c3c(F)cccc3Cl)c(Nc3ccc4c(c3)OCCO4)n12 [CR-43]
7.4 | COc1ccc2nc(-c3c(F)cccc3Cl)c(Nc3ccc4c(c3)OCCO4)n2c1Cl [CR-44]
7.4 | CCc1cccc2nc(-c3c(F)cccc3Cl)c(Nc3ccc4c(c3)OCCO4)n12 [CR-45]
7.4 | Fc1cccc(Cl)c1-c1nc2ncccn2c1Nc1ccc2c(c1)OCCO2 [CR-46]
7.4 | Cc1ccc2nc(-c3c(Cl)cccc3[N+](=O)[O-])c(Nc3ccc4c(c3)OCCO4)n2c1 [CR-47]
7.4 | Cc1ccc2nc(-c3c(F)cccc3F)c(Nc3ccc4c(c3)OCCO4)n2c1 [CR-48]
7.3 | Cc1ccc2nc(-c3c(C)cccc3C)c(Nc3ccc4c(c3)OCCO4)n2c1 [CR-49]
7.3 | Cc1cccn2c(Nc3ccc4c(c3)OCCO4)c(-c3c(F)cccc3Cl)nc12 [CR-50]
7.3 | Cc1cccc(C)c1-c1nc2ccccn2c1Nc1ccc2c(c1)OCCO2 [CR-51]
7.3 | Cc1cccc2nc(-c3c(F)cncc3F)c(Nc3ccc4c(c3)OCCO4)n12 [CR-52]
7.3 | Cc1cccc2nc(-c3c(F)cc(C#N)cc3F)c(Nc3ccc4c(c3)OCCO4)n12 [CR-53]
5.2 | Cc1ccn2c(Nc3ccc4c(c3)OCCO4)c(-c3ccc(F)nc3)nc2c1 [CR-54]

pKi | SMILES
7.3 | Cc1ccn2c(Nc3ccc4c(c3)OCCO4)c(-c3c(F)cccc3Cl)nc2c1 [CR-55]
7.3 | Fc1cccc(F)c1-c1nc2ccccn2c1Nc1ccc2c(c1)OCCO2 [CR-56]
7.2 | Cc1cccc2nc(-c3ncccc3F)c(Nc3ccc4c(c3)OCCO4)n12 [CR-57]
7.2 | Cc1cncc2nc(-c3c(F)cccc3Cl)c(Nc3ccc4c(c3)OCCO4)n12 [CR-58]
7.1 | Cc1ccc2nc(-c3cccc(F)n3)c(Nc3ccc4c(c3)OCCO4)n2c1 [CR-59]
7.1 | COc1cc(-c2nc3cc(C)ccn3c2Nc2ccc3c(c2)OCCO3)ccc1O [CR-60]
7.0 | COc1ccnc2nc(-c3c(F)cc(OCCF)cc3F)c(Nc3ccc4c(c3)OCCO4)n12 [CR-61]
7.0 | CCC(C)Oc1cccc2nc(-c3c(F)cccc3Cl)c(Nc3ccc4c(c3)OCCO4)n12 (stereo not shown) [CR-62]
7.0 | Fc1cccc(-c2nc3ccccn3c2Nc2ccc3c(c2)OCCO3)n1 [CR-63]
7.0 | Clc1cncc(Cl)c1-c1nc2ccccn2c1Nc1ccc2c(c1)OCCO2 [CR-64]
6.9 | COc1cc(O)ccc1-c1nc2cccc(C)n2c1Nc1ccc2c(c1)OCCO2 [CR-65]
6.9 | COc1ccc2nc(-c3c(Cl)cncc3Cl)c(Nc3ccc4c(c3)OCCO4)n2c1 [CR-66]
6.9 | COc1ccc2nc(-c3c(F)cccc3Cl)c(Nc3ccc4c(c3)OCCO4)n2c1OC [CR-67]
6.9 | Cc1ccn2c(Nc3ccc4c(c3)OCCO4)c(-c3c(Cl)cccc3Cl)nc2c1 [CR-68]
6.8 | Cc1cccc2nc(-c3ccc(OCCF)c(O)c3)c(Nc3ccc4c(c3)OCCO4)n12 [CR-69]
6.8 | COc1cc(-c2nc3ncccn3c2Nc2ccc3c(c2)OCCO3)ccc1O [CR-70]
6.8 | COc1cc(-c2nc3ccccn3c2Nc2ccc3c(c2)OCCO3)ccc1O [CR-71]
6.8 | COc1cc(-c2nc3c(C)cccn3c2Nc2ccc3c(c2)OCCO3)ccc1O [CR-72]
6.8 | COc1ccnc2nc(-c3c(C)cc(OCCF)cc3C)c(Nc3ccc4c(c3)OCCO4)n12 [CR-73]
6.8 | Cc1cccc(C)c1-c1nc2ncccn2c1Nc1ccc2c(c1)OCCO2 [CR-74]
6.8 | COc1cc(-c2nc3cnccn3c2Nc2ccc3c(c2)OCCO3)ccc1O [CR-75]
5.2 | Fc1cccnc1-c1nc2cnccn2c1Nc1ccc2c(c1)OCCO2 [CR-76]
